For orientation: GI50 means the concentration that inhibits growth by half. Low values mean greater sensitivity of the cells, high ones lower sensitivity of the cells. What is called IC50 is the midpoint of a concentration-inhibition curve.

Assay [1] relates to SF-295. Briefly: Growth inhibition of human SF-295 cells measured after 48 hrs by SRB assay. The format is functional. (In general: The SRB assay estimates cell density from bound dye.)
A further assay concerns HT-29. Briefly: Growth inhibition of human HT-29 cells measured after 48 hrs by SRB assay. The class given is functional, cell-based. The following applies: HT-29, 48 h.
The test system of the next assay is HCT-116. As to the kind of experiment: Growth inhibition of human HCT-116 cells measured after 48 hrs by SRB assay. The format is functional, cell-based. Particulars: HCT-116, 48 h.
Assay [2] deals with MDA-MB-231. As to the kind of experiment: Antiproliferative activity against human MDA-MB-231 cells by Alamar Blue assay. The format is functional, cell-based.
In another assay the test system is MCF7. Briefly: Antiproliferative activity against human MCF7 cells by Alamar Blue assay. The class given is functional, cell-based. In general terms: Resazurin is reduced to fluorescent resorufin, in cell work by metabolically active cells.
In assay [3] the test system is MDA-MB-231. Briefly: Growth inhibition of human MDA-MB-231 cells measured after 48 hrs by SRB assay. The format is functional.
Assay [4] has as its system SF-295. Briefly: Antiproliferative activity against human SF-295 cells by Alamar Blue assay. The format is functional, cell-based.

Bounds are passed on as bounds.

On to `CC(=O)N[C@H](C)[C@@H](O)[C@@H](C)[C@@H]1OC(=O)/C=C/C=C(C)\C=C\[C@]2(C)CCC=C[C@@H]2/C=C(C)/C=C/[C@H]1C`, for which the GI50 with SF-295 [1] and in the assay with MDA-MB-231 [3] was under 10 nM throughout. In addition, the IC50 is 7.5 nM in the assay with HT-29, 52.7 nM in the assay with HCT-116, 61.1 nM in the assay on MDA-MB-231 [2] and 40.8 nM with MCF7.

Consider `CC1=C/C=C/C(=O)O[C@@H]([C@H](C)[C@H](O)[C@@H](C)NC(=O)CCOCCOCCOCCOCCNC(=O)CCCC[C@@H]2SC[C@@H]3NC(=O)N[C@@H]32)[C@H](C)/C=C/C(C)=C/[C@H]2C=CCC[C@@]2(C)\C=C\1`, for which the IC50 in the assay with MDA-MB-231 [2], with SF-295 [4] and in the assay on MCF7 was over 5000 nM each time.

(Values after ChEMBL document CHEMBL5365397, “Synthesis and biological evaluation of biotinylated ZJ-101” (Bioorg Med Chem Lett, 2023).)
